39 molecules from US20240122180A1, “FUNGICIDAL HALOMETHYL KETONES AND HYDRATES AND THEIR MIXTURES” (FMC Corporation, priority 2020, published 2024) can be followed below.

In experiment [1] the test system is Puccinia recondita f. sp. tritici (the causal agent of wheat leaf rust). As to the kind of experiment: Test B: preventive spray on wheat seedlings, disease rating (100 = 100% control; * 50 ppm, ** 10 ppm, *** 250 ppm). Conditions: 100 = 100% disease control; for pest or weed control at 10 ppm / pest or weed control at 50 ppm: Puccinia recondita. Type of experiment: in vivo. The text has this:
(§1) General protocol for preparing test suspensions for Tests A-E: the test compounds were first dissolved in acetone in an amount equal to 3% of the final volume and then suspended at the desired concentration (in ppm) in acetone and purified water (50/50 mix by volume) containing 250 ppm of the surfactant […] (polyhydric alcohol esters). The resulting test suspensions were then used in Tests A-E.
The test solution was sprayed to the point of run-off on wheat seedlings. The following day the seedlings were inoculated with a spore suspension of Puccinia recondita f. sp. tritici (the causal agent of wheat leaf rust) and incubated in a saturated atmosphere at 20° C. for 24 h, and then moved to a growth chamber at 20° C. for 6 days, after which time disease ratings were made.
(§2) Results for Tests A-E are given in Table A. In the Table, a rating of 100 indicates 100% disease control and a rating of 0 indicates no disease control (relative to the controls). An asterisk “*” or a double asterisk “**” or a triple asterisk “***” next to the rating value indicates a 50 ppm, 10 ppm and 250 ppm test suspension was used, respectively. A dash (-) indicates the compound was not tested.

For experiment [2], the system named is Phakopsora pachyrhizi (the causal agent of Asian soybean rust). As to the kind of experiment: Test A: preventive spray on soybean seedlings, visual disease rating (100 = 100% control; * 50 ppm, ** 10 ppm, *** 250 ppm). Conditions: 100 = 100% disease control. It counts as in vivo.
Excerpt: as §1
The test solution was sprayed to the point of run-off on soybean seedlings. The following day the seedlings were inoculated with a spore suspension of Phakopsora pachyrhizi (the causal agent of Asian soybean rust) and incubated in a saturated atmosphere at 22° C. for 24 h, and then moved to a growth chamber at 22° C. for 8 days, after which time visual disease ratings were made.
as §2

[3] abbreviates: 10 ppm test suspension, wheat seedlings.
Where [4] appears, read: 10 ppm test suspension, soybean seedlings.
The mark [5] stands for this setting: 50 ppm test suspension, soybean seedlings.
The mark [6] stands for this setting: 50 ppm test suspension, wheat seedlings.
Where [7] appears, read: 10 ppm test suspension, 0 = no control.
Setting [8] is: 50 ppm test suspension, 0 = no control.

One may read the pest or weed control as how far the test organism was held down. A high value points to strong suppression. In the case of `CC(C)COC(=O)c1cnn(Cc2ccc(OCC3(C(F)(F)F)OCCO3)cc2)c1` [Compound 126, 2-methylpropyl 1-[[4-[[2-(trifluoromethyl)-1,3-dioxolan-2-yl]methoxy]phenyl]methyl]-1H-pyrazole-4-carboxylate], in experiment [1] (setting [3]), the pest or weed control at 10 ppm came out at 0%.

As for `CCO/C(=C\Oc1ccc(Cn2cc(C(=O)OC)c3ccccc32)cc1)C(F)(F)F` [compound 91], the “Test A disease control rating” value in experiment [2] (setting [4]) came out at 0%. Moreover, the “Test B disease control rating” value in experiment [1] (setting [3]) came to 0%.

With `O=Cc1ccc(OCC(O)(O)C(F)(F)F)cc1` [compound 177], in experiment [2] (setting [5]), the “Test A disease control rating” value was 100%. Also, the “Test B disease control rating” value in experiment [1] (setting [6]) turned out to be 89%.

Regarding `C=CCOC(=O)c1cnn(Cc2ccc(OCC(O)(O)C(F)(F)F)cc2)c1` [compound 43], in experiment [2] (setting [4]), the “Test A disease control rating” value turned out to be 96%. Further, the “Test B disease control rating” value in experiment [1] (setting [3]) worked out at 60%.

As for `CCO/C(=C\Oc1ccc(C#N)cc1)C(F)(F)F` [compound 144], the “Test A disease control rating” value in experiment [2] (setting [4]) is on record as 78%. For the same molecule, the “Test B disease control rating” value in experiment [1] (setting [3]) was 0%.

`O=C(NCc1ccc(OCC2(C(F)(F)F)OCCO2)cc1)c1cccc(C(F)(F)F)c1` [compound 179]: the “Test A disease control rating” value in experiment [2] (setting [4]) came out at 0%. The “Test B disease control rating” value in experiment [1] (setting [3]) is given as 0%.

`CCOC(=O)C1CCCN(Cc2ccc(O/C=C(\OCC)C(F)(F)F)cc2)C1` (centres unmarked) [compound 269]: in experiment [2] (setting [7]), the “Test A disease control rating” value worked out at 100%. Also, the “Test B disease control rating” value in experiment [1] (setting [7]) is reported as 0%.

As for `N#CCOC(=O)c1cnn(Cc2ccc(OCC3(C(F)(F)F)OCCO3)cc2)c1` [compound 172], the “Test A disease control rating” value in experiment [2] (setting [4]) came out at 100%. For the same molecule, the “Test B disease control rating” value in experiment [1] (setting [3]) turned out to be 0%.

Take `O=C(O)c1cnn(Cc2ccc(OCC3(C(F)(F)F)OCCO3)cc2)c1` [compound 93]: the “Test A disease control rating” value in experiment [2] (setting [4]) worked out at 96%. Also, in experiment [1] (setting [3]), the “Test B disease control rating” value was found to be 0%.

`O=[N+]([O-])c1cccc(OCC2(C(F)(F)F)OCCO2)c1` [compound 165] had a pest or weed control at 10 ppm in experiment [1] (setting [3]) of 0%.

As for `CCOC(=O)c1cnn(Cc2ccc(CCC3(C(F)(F)F)OCCO3)cc2)c1` [compound 67], the “Test A disease control rating” value in experiment [2] (setting [5]) is on record as 65%. Moreover, in experiment [1] (setting [6]), the “Test B disease control rating” value was 0%.

Regarding `CN(C)C(=O)C1=NOC(Cc2ccc(OCC3(C(F)(F)F)OCCO3)cc2)C1` (centres unmarked) [compound 290], in experiment [2] (setting [8]), the “Test A disease control rating” value amounted to 50%. Further, the “Test B disease control rating” value in experiment [1] (setting [8]) is on record as 19%.

With `C[Si](C)(C)CCOc1nccc(Cc2ccc(OCC3(C(F)(F)F)OCCO3)cc2)n1` [compound 314], the “Test A disease control rating” value in experiment [2] (setting [8]) is reported as 0%. In addition, the “Test B disease control rating” value in experiment [1] (setting [8]) is listed as 0%.

In the case of `CCO/C(=C\Oc1ccc(S(=O)(=O)N(C)C)cc1)C(F)(F)F` [compound 61], the “Test A disease control rating” value in experiment [2] (setting [4]) was 0%. Also, the “Test B disease control rating” value in experiment [1] (setting [3]) came to 0%.

In the case of `CCOCc1cnn(Cc2ccc(OCC3(C(F)(F)F)OCCO3)cc2)c1` [compound 240], the “Test A disease control rating” value in experiment [2] (setting [4]) is listed as 99%. Moreover, in experiment [1] (setting [3]), the “Test B disease control rating” value is reported as 0%.

In the case of `COC(C)C(=O)NCc1ccc(OCC2(C(F)(F)F)OCCO2)cc1` (centres unmarked) [compound 214], the “Test A disease control rating” value in experiment [2] (setting [4]) was found to be 0%. Moreover, the “Test B disease control rating” value in experiment [1] (setting [3]) was found to be 0%.

Turning to `CCOC(=COc1ccc(Cn2nccc2C(=O)OC(C)(C)C)cc1)C(F)(F)F` [compound 252], the “Test A disease control rating” value in experiment [2] (setting [4]) turned out to be 0%. Also, the “Test B disease control rating” value in experiment [1] (setting [3]) turned out to be 0%.

Turning to `CCO/C(=C\Oc1cccc(Cn2cc(C(=O)OCCOC)cn2)c1)C(F)(F)F` [compound 340], the “Test A disease control rating” value in experiment [2] (setting [7]) stood at 100%. Besides, the “Test B disease control rating” value in experiment [1] (setting [7]) is on record as 0%.

As to `CCO/C(=C\Oc1ccc(C(N)=O)cc1)C(F)(F)F` [compound 99], the “Test A disease control rating” value in experiment [2] (setting [4]) was 0%. In experiment [1] (setting [3]), the “Test B disease control rating” value stood at 80%.

As for `CCO/C(=C\Oc1ccc(Cn2cnc(C(=O)OC)n2)cc1)C(F)(F)F` [compound 123], the “Test A disease control rating” value in experiment [2] (setting [4]) came to 98%. Besides, the “Test B disease control rating” value in experiment [1] (setting [3]) worked out at 0%.

On to `CSc1nccc(Cc2ccc(OCC3(C(F)(F)F)OCCO3)cc2)n1` [compound 281], for which, in experiment [2] (setting [8]), the “Test A disease control rating” value is listed as 95%. The “Test B disease control rating” value in experiment [1] (setting [8]) came to 98%.

Take `CON(Cc1ccc(OCC2(C(F)(F)F)OCCO2)cc1)C(=O)C(C)C` [compound 235]: the “Test A disease control rating” value in experiment [2] (setting [4]) is reported as 97%. Further, the “Test B disease control rating” value in experiment [1] (setting [3]) is on record as 0%.

In experiment [1] (setting [7]), `CCCOC(=O)c1cnn(Cc2cccc(O/C=C(\OCC)C(F)(F)F)c2)c1` [Compound 331, propyl 1-[[3-[[(1Z)-2-ethoxy-3,3,3-trifluoro-1-propen-1-yl]oxy]phenyl]methyl]-1H-pyrazole-4-carboxylate] showed a pest or weed control at 10 ppm of 0%.

`O=C(OCC1CC1)c1cnn(Cc2ccc(OCC3(C(F)(F)F)OCCO3)cc2)c1` [Compound 127, cyclopropylmethyl 1-[[4-[[2-(trifluoromethyl)-1,3-dioxolan-2-yl]methoxy]phenyl]methyl]-1H-pyrazole-4-carboxylate] came in with a pest or weed control at 10 ppm in experiment [1] (setting [3]) of 0%.

In turn, `CCOC(=O)c1cnn(Cc2ccc(OCC3(C(F)(F)F)OCC(C)(C)O3)cc2)c1` (centres unmarked) [Compound 12, ethyl 1-[[4-[[4,4-dimethyl-2-(trifluoromethyl)-1,3-dioxolan-2-yl]methoxy]-phenyl]methyl]-1H-pyrazole-4-carboxylate] registered a pest or weed control at 10 ppm in experiment [1] (setting [3]) of 0%.

In experiment [1] (setting [7]), `CCO/C(=C\Oc1cccc(Cn2cc(C(=O)OC)cn2)c1)C(F)(F)F` [Compound 330, methyl 1-[[3-[[(1Z)-2-ethoxy-3,3,3-trifluoro-1-propen-1-yl]oxy]phenyl]methyl]-1H-pyrazole-4-carboxylate] gave a pest or weed control at 10 ppm of 0%.

For the molecule `CCO/C(=C\Oc1cccc(Cn2cc(C(=O)NC3CCCC3)cn2)c1)C(F)(F)F` [compound 390], the “Test A disease control rating” value in experiment [2] (setting [8]) was 0%.

On to `CCO/C(=C\Oc1cccc(Cn2cc(C(=O)NC3CC3)cn2)c1)C(F)(F)F` [compound 391], for which the “Test A disease control rating” value in experiment [2] (setting [8]) is recorded as 0%.

Turning to `CCOC(=O)c1cnn(Cc2cccc(OCC(O)(O)C(F)(F)F)c2)c1` [Compound 266, ethyl 1-[[3-(3,3,3-trifluoro-2,2-dihydroxypropoxy)phenyl]methyl]-1H-pyrazole-4-carboxylate], in experiment [1] (setting [8]), the pest or weed control at 50 ppm stood at 74%.

In experiment [1] (setting [3]), `COCCOC(=O)c1cnn(Cc2ccc(OCC3(C(F)(F)F)OCCO3)cc2)c1` [Compound 162, 2-methoxyethyl 1-[[4-[[2-(trifluoromethyl)-1,3-dioxolan-2-yl]methoxy]phenyl]methyl]-1H-pyrazole-4-carboxylate] yielded a pest or weed control at 10 ppm of 0%.

`CCOC(=O)c1cnn(Cc2cccc(OCC3(C(F)(F)F)OCCO3)c2)c1` [compound 146] gave a pest or weed control at 50 ppm in experiment [1] (setting [6]) of 0%.

With `O=Cc1cccc(OCC(O)(O)C(F)(F)F)c1` [compound 305], the pest or weed control at 10 ppm in experiment [1] (setting [7]) amounted to 0%.

On to `CCOC(=O)c1cnn(COCc2ccc(O/C=C(\OCC)C(F)(F)F)cc2)c1` [Compound 297, ethyl 1-[[4-[[(1Z)-2-ethoxy-3,3,3-trifluoro-1-propen-1-yl]oxy]phenylmethoxy]methyl]-1H-pyrazole-4-carboxylate], for which the pest or weed control at 10 ppm in experiment [1] (setting [7]) was 0%.

Molecule `N#CCCCOC(=O)c1cnn(Cc2ccc(OCC3(C(F)(F)F)OCCO3)cc2)c1` [Compound 171, 3-cyanopropyl 1-[[4-[[2-(trifluoromethyl)-1,3-dioxolan-2-yl]methoxy]phenyl]methyl]-1H-pyrazole-4-carboxylate] came in with a pest or weed control at 10 ppm in experiment [1] (setting [3]) of 0%.

For the molecule `CCOC(=O)c1ccn(Cc2ccc(O/C=C(\OCC)C(F)(F)F)cc2)n1` [Compound 231, ethyl 1-[[4-[[(1Z)-2-ethoxy-3,3,3-trifluoro-1-propen-1-yl]oxy]phenyl]methyl]-1H-pyrazole-3-carboxylate], the pest or weed control at 10 ppm in experiment [1] (setting [3]) was 0%.

In experiment [1] (setting [3]), `CCOC(=O)c1cnn(CCc2ccc(O/C=C(\OCC)C(F)(F)F)cc2)c1` [Compound 132, ethyl 1-[2-[4-[[(1Z)-2-ethoxy-3,3,3-trifluoro-1-propen-1-yl]oxy]phenyl]ethyl]-1H-pyrazole-4-carboxylate] showed a pest or weed control at 10 ppm of 0%.

For the molecule `N#Cc1cccc(OCC2(C(F)(F)F)OCCO2)c1` [compound 147], the pest or weed control at 50 ppm in experiment [1] (setting [6]) stood at 0%.

`CC#CCOC(=O)c1cnn(Cc2ccc(OCC3(C(F)(F)F)OCCO3)cc2)c1` [Compound 163, 2-butyn-1-yl 1-[[4-[[2-(trifluoromethyl)-1,3-dioxolan-2-yl]methoxy]phenyl]methyl]-1H-pyrazole-4-carboxylate] gave a pest or weed control at 10 ppm in experiment [1] (setting [3]) of 0%.

Take `CCOC(=O)c1cnn(Cc2ccc(O/C=C(\OCC)C(F)(F)F)c(F)c2)c1` [Compound 262, ethyl 1-[[4-[[(1Z)-2-ethoxy-3,3,3-trifluoro-1-propen-1-yl]oxy]-3-fluorophenyl]methyl]-1H-pyrazole-4-carboxylate]: in experiment [1] (setting [7]), the pest or weed control at 10 ppm was found to be 0%.
